How the values were obtained:
[1] = molecular target: T1, 5-HT3 receptor (Cavia porcellus, UniProt O70212); assay: Inhibition of 5-HT-induced contractions in isolated guinea pig ileum; type: cell-based; conditions: methysergide 10^-6 M, 20 min incubation, 5-HT contact time 30 sec, 37° C., read-out: A2 (concentration of the antagonist giving a dose ratio of 2) (converted)
T1 construct: the terminal 15 cm of ileum removed, and 1.5-2.0 cm lengths prepared and mounted in 10 ml organ baths; from tissue; host or cells: isolated guinea pig terminal ileum
T1 sequence (O70212 24-490 limits assumed): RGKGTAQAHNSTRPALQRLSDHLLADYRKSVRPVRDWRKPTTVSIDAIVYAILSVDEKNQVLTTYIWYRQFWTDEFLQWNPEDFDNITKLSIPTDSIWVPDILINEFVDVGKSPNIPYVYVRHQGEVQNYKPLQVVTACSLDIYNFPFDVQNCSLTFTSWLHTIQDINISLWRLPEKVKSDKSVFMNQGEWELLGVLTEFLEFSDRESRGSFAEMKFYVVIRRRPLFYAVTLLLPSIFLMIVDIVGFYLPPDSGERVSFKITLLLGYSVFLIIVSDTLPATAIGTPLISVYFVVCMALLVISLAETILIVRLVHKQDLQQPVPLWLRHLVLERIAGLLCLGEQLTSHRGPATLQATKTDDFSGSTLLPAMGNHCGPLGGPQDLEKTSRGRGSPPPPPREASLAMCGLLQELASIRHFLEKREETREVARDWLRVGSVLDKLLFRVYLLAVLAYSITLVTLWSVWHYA
Experimental: Inhibition of 5-HT-Induced Contractions in Isolated Guinea Pig Ileum
Compounds of formula (I) were tested for their 5HT3 -antagonist activity using the following method:
5-HT produces contractions of the guinea pig ileum via 2 different receptors. 1) direct contractions via 5-HT2 receptors on the muscle, 2) indirect contractions via 5-HT3 receptors on intrinsic gut neurones, producing acetylcholine release. By administering 5-HT to lengths of ileum in the presence of methysergide (to block 5-HT2 receptors) you can assay 5-HT3 receptor activity.
Guinea pigs were killed by means of cervical dislocation the terminal 15 cm of ileum removed, and 1.5-2.0 cm lengths prepared and mounted in 10 ml organ baths containing calcium deficient tyrodes of the following composition (mM) NaCl (136.9); KCl (2.68); CaCl2 (0.9); MgCl2 (1.05); NaCO3 (11.9); NaH2 PO4 (0.42); glucose (5.55) and containing methysergide (10^-6 M) maintained at 37° C. and gassed with 95% O2 and 5% CO2. The mechanical activity of the muscle was measured by a HSE 351 isometric transducer connected via a HSE bridge amplifier to a potentiometric pen recorder. […]
The maximum response to acetylcholine for each tissue is measured and the responses to 5-HT calculated as percentage maximum of the acetylcholine (Ach) maximum response in that tissue. The peak of the 5-HT response is measured. […]

[2] = molecular target: T2, 5-HT3 receptor (Mus musculus, UniProt P23979); assay: 5-HT3 receptor binding to N1E-115 neuroblastoma cells (3H-Quipazine displacement); conditions: for displacement of 3H-Quipazine binding: specificity of the assay, N1E-115 neuroblastoma cells, in words
T2 construct: Harvested cells were homogenized in Tris buffer; endogenous in cells; host or cells: N1E-115 mouse neuroblastoma cells
T2 sequence (P23979 24-489): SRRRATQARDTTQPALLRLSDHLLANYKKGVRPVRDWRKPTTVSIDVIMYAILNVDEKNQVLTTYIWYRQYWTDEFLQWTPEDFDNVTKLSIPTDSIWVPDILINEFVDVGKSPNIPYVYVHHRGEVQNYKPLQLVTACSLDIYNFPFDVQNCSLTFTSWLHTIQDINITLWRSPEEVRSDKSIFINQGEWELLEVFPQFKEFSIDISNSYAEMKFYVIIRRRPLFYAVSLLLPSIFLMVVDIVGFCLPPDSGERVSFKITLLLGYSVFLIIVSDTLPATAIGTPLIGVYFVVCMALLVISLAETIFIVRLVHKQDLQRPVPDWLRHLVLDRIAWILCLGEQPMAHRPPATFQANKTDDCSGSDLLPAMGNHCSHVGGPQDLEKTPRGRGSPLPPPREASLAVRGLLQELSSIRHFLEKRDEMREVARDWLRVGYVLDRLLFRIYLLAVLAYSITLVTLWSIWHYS
Experimental: 5-HT3 Receptor Binding to N1E-115 Neuroblastoma Cells
The binding of 3H-quipazine to N1E-115 neuroblastoma cells in-vitro was determined by a modification of the method of Hoyer and Neijt (Hoyer, D. and Neijt, H. C., 1988, Molecular Pharmacology, 33:303-309). […] The cells were grown to a density of 8-15×10^7 cells per bottle and harvested by vigorous shaking. Harvested cells were homogenized in Tris buffer (20 mm, pH=7.5) containing 154 mM NaCl using a Brinkmann Polytron. The homogenate was centrifuged at 900×g and the supernatant was used directly in the binding assay. The supernatant was diluted at a concentration of 2×10^6 cells per ml in Tris buffer. Binding assays consisted of 50 μL 3H-Quipazine (1 nM final concentration), 250 μL membrane suspension, and 200 μL drug or buffer. Nonspecific binding was determined by the addition of 10 μM MDL 72222. Tubes were incubated at […] for 60 minutes, followed by filtration through GFB filters under vacuum. The filters were then washed with ice-cold Tris buffer.

Question: `CCCCc1noc(-c2sccc2NC(=O)N[C@H]2C[C@H]3CCC[C@@H](C2)N3C)n1` [Example 7, N-(2-(3-Butyl-1,2,4-oxadiazol-5-yl)-3-thienyl)-N^1-(endo-9-methyl-9-azabicyclo[3.3.1]non-3-yl)urea] was tested. Which Kb [1] did it give?
Answer: 24.8 µM

Question: What about the IC50 [2] of the same compound?
Answer: 0.0023 µM

Question: With `O=C(c1ccc(F)cc1)C1CCN(CCn2c(=O)[nH]c3ccccc3c2=O)CC1` [ketanserin] as the compound, how does the “displacement of 3H-Quipazine binding” value [2] read?
Answer: inability

Question: How did the “displacement of 3H-Quipazine binding” value [2] turn out when `CCCN(CCC)C1CCc2cccc(O)c2C1` (stereo not shown) [Example 8-OH-DPAT] was run?
Answer: inability

Question: With `COc1cc(N)c(Cl)cc1C(=O)NC1CN2CCC1CC2` (stereo not shown) [zacopride] as the compound, how does the “displacement of 3H-Quipazine binding” value [2] read?
Answer: potent displacers

Question: `c1ccc2nc(N3CCNCC3)ccc2c1` [quipazine] was tested. Which “displacement of 3H-Quipazine binding” value [2] did it give?
Answer: potent displacers

Question: Which “displacement of 3H-Quipazine binding” value [2] does the source give for `CN1[C@@H]2CC[C@H]1C[C@@H](OC(=O)c1cc(Cl)cc(Cl)c1)C2` [MDL 72222] here?
Answer: potent displacers

Question: For `CN1[C@@H]2CCC[C@H]1C[C@@H](NC(=O)Nc1ccsc1-c1nc(C3CC3)no1)C2` [Example 4, N-(2-(3-Cyclopropyl-1,2,4-oxadiazol-5-yl)-3-thienyl)-N^1 - (endo-9-methyl-9-azabicyclo[3.3.1]non-3yl)urea], which Kb [1] is on record?
Answer: 103 µM

Question: And the IC50 [2]?
Answer: 0.0067 µM

Question: For `CN1[C@@H]2CC[C@H]1C[C@@H](OC(=O)c1c[nH]c3ccccc13)C2` [ICS 205-930], which “displacement of 3H-Quipazine binding” value [2] is on record?
Answer: potent displacers
